The values that follow are results of earlier work, collected in US11577235B1, “Layered catalyst reactor systems and processes for hydrotreatment of hydrocarbon feedstocks” (Chevron U.S.A. Inc., priority 2021, dated 2023).

In the data set the test system is rats. Conditions: single oral dose to rats.

On to `O=CC(=O)O` [glyoxylic], for which the LD50 is listed as 3000 mg/kg.

In the case of thio-diglycolic acid, the median lethal dose (LD50) is on record as 500 mg/kg.
